From US10646488B2 (Araxes Pharma LLC, priority 2016, dated 2020) come the findings set out here.

Each structure is given as a SMILES string.

For the first assay, the target named is T1, KRAS G12C 1-169, his-tagged protein, GDP-loaded (Homo sapiens, UniProt P01116, G12C).
T1 construct: KRAS G12C 1-169, his-tagged protein, GDP-loaded
In words: Covalent binding (% modification) to KRAS G12C by mass spectrometry. Further: test concentration or dose not given here. The settings on record: covalent binding to KRAS G12C after a ten minute incubation period.
Turning to `C=CC(=O)N1CCN(c2nc(OCCN3CC(F)(F)C3)nc3c(F)c(-c4c(O)cccc4F)c(Cl)cc23)C[C@H]1C` (atropisomer, axis not shown) [Compound 63, 1-((R)-4-((S)-6-chloro-2-(2-(3,3-difluoroazetidin-1-yl)ethoxy)-8-fluoro-7-(2-fluoro-6-hydroxyphenyl)quinazolin-4-yl)-2-methyl-piperazin-1-yl) prop-2-en-1-one], the Binding % result is given as “+++ (+++ indicates binding activity greater than 90%)”.

With `C=CC(=O)N1C[C@H](C)N(c2nc(OCCN(CC)CC)nc3c(F)c(-c4c(O)cccc4F)c(Cl)cc23)C[C@H]1C` (atropisomer, axis not shown) [Compound 75, 1-((2R,5S)-4-((S)-6-chloro-2-(2-(diethylamino)ethoxy)-8-fluoro-7-(2-fluoro-6-hydroxyphenyl)quinazolin-4-yl)-2,5-dimethyl-piperazin-1-yl) prop-2-en-1-one], the Binding % entry is given as “+++ (+++ indicates binding activity greater than 90%)”.

In the case of `C=CC(=O)N1C[C@@H](C)N(c2nc(N3CC(CO)C3)nc3c(F)c(-c4c(O)cccc4F)c(Cl)cc23)[C@@H](C)C1` [Compound 64, 1-((3R,5S)-4-(6-chloro-8-fluoro-7-(2-fluoro-6-hydroxyphenyl)-2-(3-(hydroxy-methyl)azetidin-1-yl)quinazolin-4-yl)-3,5-dimethyl-piperazin-1-yl) prop-2-en-1-one], the Binding % result is on record as “++ (++ indicates binding activity from 50 to 90%)”.

Turning to `C=CC(=O)N1[C@H](C)CN(c2nc(N3CC(N(C)C)C3)nc3c(F)c(-c4c(C)ccc5[nH]ncc45)c(Cl)cc23)C[C@@H]1C` [Compound 39, 1-((2R,6S)-4-(6-chloro-2-(3-(dimethylamino)azetidin-1-yl)-8-fluoro-7-(5-methyl-1H-indazol-4-yl)quinazolin-4-yl)-2,6-dimethyl-piperazin-1-yl) prop-2-en-1-one], the Binding % entry is listed as “++ (++ indicates binding activity from 50 to 90%)”.

With `C=CC(=O)N1[C@H](C)CN(c2nc(N3CC(N(C)C)C3)nc3c(F)c(-c4c(O)cccc4F)c(Cl)cc23)C[C@@H]1C` [Compound 67, 1-((2R,6S)-4-((S)-6-chloro-2-(3-(dimethylamino)azetidin-1-yl)-8-fluoro-7-(2-fluoro-6-hydroxyphenyl)quinazolin-4-yl)-2,6-dimethyl-piperazin-1-yl) prop-2-en-1-one], the Binding % result was “+ (+ indicates binding activity up to 50%)”.

With `C=CC(=O)N1C[C@@H](C)N(c2nc(OCCN3CC(F)(F)C3)nc3c(F)c(-c4c(C)ccc5cn[nH]c45)c(Cl)cc23)[C@@H](C)C1` [Compound 47, 1-((3S,5R)-4-(6-chloro-2-(2-(3,3-difluoroazetidin-1-yl)ethoxy)-8-fluoro-7-(6-methyl-1H-indazol-7-yl)quinazolin-4-yl)-3,5-dimethyl-piperazin-1-yl) prop-2-en-1-one], the Binding % entry is listed as “++ (++ indicates binding activity from 50 to 90%)”.

On to `C=CC(=O)N1C[C@H](C)N(c2nc(OC3CCN(C4CC4)CC3)nc3c(F)c(-c4c(C)ccc5[nH]ncc45)c(Cl)cc23)C[C@H]1C` [Compound 78, 1-((2R,5S)-4-(6-chloro-2-((1-cyclopropyl-piperidin-4-yl)oxy)-8-fluoro-7-(5-methyl-1H-indazol-4-yl)quinazolin-4-yl)-2,5-dimethyl-piperazin-1-yl) prop-2-en-1-one], for which the Binding % result was “++ (++ indicates binding activity from 50 to 90%)”.

In the case of `C=CC(=O)N1[C@H](C)CN(c2nc(OCCN3CC(F)(F)C3)nc3c(F)c(-c4c(C)ccc5[nH]ncc45)c(Cl)cc23)C[C@@H]1C` [Compound 41, 1-((2R,6S)-4-(6-chloro-2-(2-(3,3-difluoroazetidin-1-yl)ethoxy)-8-fluoro-7-(5-methyl-1H-indazol-4-yl)quinazolin-4-yl)-2,6-dimethyl-piperazin-1-yl) prop-2-en-1-one], the Binding % result is on record as “++ (++ indicates binding activity from 50 to 90%)”.

Turning to `C=CC(=O)N1C[C@@H](C)N(c2nc(OCCN3CC(F)(F)C3)nc3c(F)c(-c4c(O)cccc4F)c(Cl)cc23)[C@@H](C)C1` [Compound 22, 1-((3S,5R)-4-(6-chloro-2-(2-(3,3-difluoroazetidin-1-yl)ethoxy)-8-fluoro-7-(2-fluoro-6-hydroxyphenyl)quinazolin-4-yl)-3,5-dimethyl-piperazin-1-yl) prop-2-en-1-one], the Binding % result is listed as “++ (++ indicates binding activity from 50 to 90%)”.

Still in this assay, the particulars now being: covalent binding to KRAS G12C after a three minute incubation period.
Turning to `C=CC(=O)N1C[C@H](C)N(c2nc(Oc3cn[nH]c3)nc3c(F)c(-c4c(O)cccc4F)c(Cl)cc23)C[C@H]1C` [Compound 222, 1-((2R,5S)-4-(2-(1H-pyrazol-4-yloxy)-6-chloro-8-fluoro-7-(2-fluoro-6-hydroxy-phenyl)quinazolin-4-yl)-2,5-dimethyl-piperazin-1-yl) prop-2-en-1-one], the Binding % result is given as “++ (++ indicates binding activity from 50 to 90%)”.

For the compound `C=CC(=O)N1C[C@H](C)N(c2nc(OCCCN(C)C)nc3c(F)c(-c4c(O)cccc4F)c(C(F)(F)F)cc23)C[C@H]1C` [Compound 218, 1-((2R,5S)-4-(2-(3-(dimethylamino)propoxy)-8-fluoro-7-(2-fluoro-6-hydroxyphenyl)-6-(trifluoromethyl)quinazolin-4-yl)-2,5-dimethyl-piperazin-1-yl) prop-2-en-1-one], the Binding % result is recorded as “+++ (+++ indicates binding activity greater than 90%)”.

Take `C=CC(=O)N1C[C@H](C)N(c2nc(N3CC(N)C3)nc3c(F)c(-c4c(O)cccc4F)c(Cl)cc23)C[C@H]1C` [Compound 92]: the Binding % result is recorded as “++ (++ indicates binding activity from 50 to 90%)”.

Turning to `C=CC(=O)N1C[C@H](C)N(c2nc(N3CC4(CCN4C)C3)nc3c(F)c(-c4c(C)ccc5[nH]ncc45)c(Cl)cc23)C[C@H]1C` [Compound 170, 1-((2R,5S)-4-(6-chloro-8-fluoro-7-(5-methyl-1H-indazol-4-yl)-2-(1-methyl-1,6-diazaspiro[3.3]heptan-6-yl)quinazolin-4-yl)-2,5-dimethyl-piperazin-1-yl) prop-2-en-1-one], the Binding % result was “+ (+ indicates binding activity greater than 0% and up to 50%)”.

`C=CC(=O)N1C[C@H](C)N(c2nc(OCCCN(CC)CC)nc3c(F)c(-c4c(O)cccc4F)c(Cl)cc23)C[C@H]1C` [Compound 158, 1-((2R,5S)-4-(6-chloro-2-(3-(diethylamino)propoxy)-8-fluoro-7-(2-fluoro-6-hydroxyphenyl)quinazolin-4-yl)-2,5-dimethyl-piperazin-1-yl) prop-2-en-1-one]: the Binding % result is given as “+++ (+++ indicates binding activity greater than 90%)”.

`C=CC(=O)N1C[C@H](C)N(c2nc(OCCn3ccnc3)nc3c(F)c(-c4c(O)cccc4F)c(Cl)cc23)C[C@H]1C` [Compound 232, 1-((2R,5S)-4-(2-(2-(1H-imidazol-1-yl)ethoxy)-6-chloro-8-fluoro-7-(2-fluoro-6-hydroxyphenyl)quinazolin-4-yl)-2,5-dimethyl-piperazin-1-yl) prop-2-en-1-one]: the Binding % entry is on record as “++ (++ indicates binding activity from 50 to 90%)”.

With `C=CC(=O)N1C[C@H](C)N(c2nc(N3CC(N(C)CC)C3)nc3c(F)c(-c4c(C)ccc5cn[nH]c45)c(Cl)cc23)C[C@H]1C` [Compound 118, 1-((2R,5S)-4-(6-chloro-2-(3-(ethyl(methyl)amino)azetidin-1-yl)-8-fluoro-7-(6-methyl-1H-indazol-7-yl)quinazolin-4-yl)-2,5-dimethyl-piperazin-1-yl) prop-2-en-1-one], the Binding % entry is “+ (+ indicates binding activity greater than 0% and up to 50%)”.

With `C=CC(=O)N1C[C@H](C)N(c2nc(N3CC(N(C)C)C3)nc3c(F)c(-c4cc(O)cc5ccccc45)c(C(F)(F)F)cc23)C[C@H]1C` [Compound 178, 1-((2R,5S)-4-(2-(3-(dimethylamino)azetidin-1-yl)-8-fluoro-7-(3-hydroxynaphthalen-1-yl)-6-(trifluoromethyl)quinazolin-4-yl)-2,5-dimethyl-piperazin-1-yl) prop-2-en-1-one], the Binding % result was “+++ (+++ indicates binding activity greater than 90%)”.

As to `C=CC(=O)N1CCN(c2nc(N3CC(N(CC)CC)C3)nc3c(F)c(-c4c(O)cccc4F)c(Cl)cc23)C[C@H]1C` [Compound 164, 1-((2R)-4-(6-chloro-2-(3-(diethylamino)azetidin-1-yl)-8-fluoro-7-(2-fluoro-6-hydroxyphenyl)quinazolin-4-yl)-2-methyl-piperazin-1-yl) prop-2-en-1-one], the Binding % result is “++ (++ indicates binding activity from 50 to 90%)”.

As for `C=CC(=O)N1C[C@H](C)N(c2nc(N3CC(N(CC)C4CC4)C3)nc3c(F)c(-c4c(C)ccc5cn[nH]c45)c(Cl)cc23)C[C@H]1C` [Compound 116, 1-((2R,5S)-4-(6-chloro-2-(3-(cyclopropyl (ethyl)amino)azetidin-1-yl)-8-fluoro-7-(6-methyl-1H-indazol-7-yl)quinazolin-4-yl)-2,5-dimethyl-piperazin-1-yl) prop-2-en-1-one], the Binding % result was “++ (++ indicates binding activity from 50 to 90%)”.

`[2H]C([2H])([2H])N(C1CN(c2nc(N3C[C@@H](C)N(C(=O)C=C)C[C@@H]3C)c3cc(Cl)c(-c4c(O)cccc4F)c(F)c3n2)C1)C([2H])([2H])[2H]` (atropisomer, axis not shown) [Compound 212, 1-((2R,5S)-4-(2-(3-(bis(triduetero-methyl)amino)azetidin-1-yl)-6-chloro-8-fluoro-7-((R)-2-fluoro-6-hydroxyphenyl)quinazolin-4-yl)-2,5-dimethyl-piperazin-1-yl) prop-2-en-1-one]: the Binding % entry is “+ (+ indicates binding activity greater than 0% and up to 50%)”.

`[2H]C([2H])([2H])N(C1CN(c2nc(N3C[C@@H](C)N(C(=O)C=C)C[C@@H]3C)c3cc(Cl)c(-c4cc(O)cc5ccccc45)c(F)c3n2)C1)C([2H])([2H])[2H]` (atropisomer, axis not shown) [Compound 228]: the Binding % entry was “+++ (+++ indicates binding activity greater than 90%)”.
